Like-named read-outs stand apart in the source and are kept apart here. One block for each compound: values may come before it.
Assays:
[1] = molecular target: T1, GST-GK derived from human liver GK (Homo sapiens, UniProt P35557); experiment: In vitro GK activating action measurement test; assay type: biochemical; conditions: 10 min; test compound 1 μmol/L, glucose 2.5 mmol/L, 25° C.; read-out: GK activation rate (%)
T1 construct: made in house; host or cells: Escherichia coli DH5α
T1 sequence (P35557 1-466 isoform P35557-2): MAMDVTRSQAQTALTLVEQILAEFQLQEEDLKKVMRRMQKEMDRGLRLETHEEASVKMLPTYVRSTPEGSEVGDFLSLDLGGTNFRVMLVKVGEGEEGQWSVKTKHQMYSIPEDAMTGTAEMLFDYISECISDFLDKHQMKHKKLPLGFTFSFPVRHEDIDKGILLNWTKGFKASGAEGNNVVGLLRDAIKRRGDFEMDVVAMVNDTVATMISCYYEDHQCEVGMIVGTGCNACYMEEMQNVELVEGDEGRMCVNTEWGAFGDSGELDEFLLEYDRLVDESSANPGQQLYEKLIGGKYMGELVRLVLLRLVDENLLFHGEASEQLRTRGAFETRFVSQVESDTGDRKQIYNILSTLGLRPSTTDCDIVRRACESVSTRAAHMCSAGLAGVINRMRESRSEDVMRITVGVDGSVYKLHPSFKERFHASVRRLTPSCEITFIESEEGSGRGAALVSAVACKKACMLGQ
Source text: cDNA (GenBank Accession No. NM_033507, human glucokinase, variant 2) encoding human liver-type GK polypeptide was cloned by performing a polymerase chain reaction (hereinafter referred to as “PCR”) using a human liver cDNA library (Human liver QUICK-Clone cDNA, TAKARA BIO INC.), and the thus cloned cDNA was then introduced into an expression vector (pGEX-3X, GE Healthcare Japan) for glutathione S transferase (hereinafter referred to as GST) fusion proteins. The resulting vector was introduced into Escherichia coli (Competent high DH5α, Toyobo Co., Ltd.), and the transformed Escherichia coli was then cultured at 37° C. Thereafter, Isopropyl β-D-1-thiogalactopyranoside (final concentration: 1 mmol/L, Sigma Aldrich Japan) was added to the culture, and the obtained mixture was then cultured at 30° C. for 3 hours. Thereafter, a cell mass was recovered. The recovered cell mass was subjected to freezing-and-thawing, and the resulting cell mass was then suspended in Triton-X that had been added in a final concentration of 1% to a phosphate buffer, followed by disintegration with an ultrasonic disintegrator. The homogenate was centrifuged at 33,200 rpm at 4° C. for 1 hour. Thereafter, the supernatant was recovered, and a GST-GK fusion protein was then purified using a glutathione column (GSTrap FF, GE Healthcare Japan). The obtained GST-GK fusion protein was divided into some portions each having a small volume, and the thus divided proteins were then preserved at −80° C.
A GK assay was carried out at 25° C. at a final incubation volume of 100 μL using a flat-bottom 96-well assay plate. An assay buffer comprised 25 mmol/L Hepes buffer (pH 7.1), 25 mmol/L KCl, 2.5 mmol/L or 10 mmol/L D-glucose, 5 mmol/L ATP, 1 mmol/L nicotinamide adenine dinucleotide phosphate (abbreviated as NADP), 2 mmol/L MgCl2, 1 mmol/L dithiothreitol (DTT), 2 units/mL glucose-6 phosphate dehydrogenase (G6PDH), and 1 μg/mL GST-GK derived from human liver GK. ATP, G6PDH, and NADP were purchased from Roche Diagnostics. […] The thus mixed solution was preincubated in an incubator in which the temperature was controlled at 25° C. for 15 minutes. Subsequently, the reaction was initiated by adding 10 μL of the GST-GK solution to the reaction mixture, resulting in a final concentration of 0.1 μg/mL. After initiation of the reaction, an increase in the optical concentration at 340 nm (OD340) was monitored with a microplate spectrophotometer (Varsamax, Molecular Devices Japan K. K.) every 10 seconds over an incubation period of 10 minutes. An inclination of the OD340 increase was defined as raw data. The GK activating rate was indicated as a numerical value obtained from the expression: (Inclination of OD340 increase by addition of the test compound)/(inclination of OD340 increase without addition of the test compound). The results of the GK activating rate obtained at a test compound concentration of 1 μmol/L under the condition of a glucose concentration of 2.5 mmol/L are shown in the following table 2.

[2] = Evaluation of organ selectivity (non-binding drug concentration in liver and pancreas after oral administration); assay type: in vivo, normal mice (C57BL/6j mice); conditions: C57BL/6j, mouse, mice, 150 minutes after administration
Experimental: A test compound suspended in 10% (v/v) Gelucire 44/14 (GATTEFOSSE) was orally administered to normal mice (C57BL/6j mice, CLEA Japan, Inc.). The percentages of drugs that had not bound to proteins in the liver and the pancreas, which had been obtained by the in vitro test, were […] the total concentrations of the drugs in the liver and the pancreas obtained 150 minutes after administration of the drugs, so as to calculate the non-binding concentration of the drug in each case. The ratio of the non-binding concentration of the drug in the […] was calculated, and thus, liver selectivity was evaluated. As a comparative compound, PSN-GK1 described in non-patent document 11 (corresponding to Example 94 of patent document 2) was produced according to the method described in patent document 2, and the produced comparative compound was then evaluated in the same manner as described above (in the table, the comparative compound is indicated as PSN-GK1).

[3] = as above; assay type: in vivo, normal mice (C57BL/6j mice); conditions: C57BL/6j, mouse, liver and pancreas, mice, 150 minutes after administration
[4] = liver, dose 10 mg/kg, read-out: Non-binding concentration (ng/mL) Liver
[5] = pancreas, dose 10 mg/kg, read-out: Non-binding concentration (ng/mL) Pancreas

Structure (SMILES): CNC(=O)N1CC[C@H](C[C@@H](C(=O)Nc2ccc(C)cn2)c2ccc(S(=O)(=O)C3CC3)cc2)C1 [Example 19, (S)-3-((R)-2-(4-(cyclopropylsulfonyl)phenyl)-3-((5-methylpyridin-2-yl)amino)-3-oxopropyl)-N-methylpyrrolidine-1-carboxamide]
activity at 1 µM [1]: 437%
concentration at 150 min [2, 4]: 10 ng/mL
concentration at 150 min [2, 5]: 0.58 ng/mL
selectivity ratio at 150 min ([3]; dose 10 mg/kg): 17

Structure (SMILES): CC(=O)N1CC[C@H](C[C@@H](C(=O)Nc2ccc(C)cn2)c2ccc(S(=O)(=O)C3CC3)cc2)C1 [Example 23, (R)-3-((S)-1-acetylpyrrolidin-3-yl)-2-(4-(cyclopropylsulfonyl)phenyl)-N-(5-methylpyridin-2-yl)propanamide]
activity at 1 µM [1]: 491%
selectivity ratio at 150 min ([2]; liver and pancreas, dose 3 mg/kg): 9
concentration at 150 min ([2]; liver, dose 3 mg/kg, read-out: Non-binding concentration (ng/mL) Liver): 3 ng/mL
concentration at 150 min ([2]; pancreas, dose 3 mg/kg, read-out: Non-binding concentration (ng/mL) Pancreas): 0.33 ng/mL

Structure (SMILES): O=C(Nc1ncc(F)s1)[C@H](C[C@H]1CCN(C(=O)CO)C1)c1ccc(S(=O)(=O)C2CC2)cc1 [Example 13, (R)-2-(4-(cyclopropylsulfonyl)phenyl)-N-(5-fluorothiazol-2-yl)-3-((S)-1-(2-hydroxyacetyl)pyrrolidin-3-yl)propanamide]
activity at 1 µM [1]: 443%

Structure (SMILES): CCCNC(=O)N1CC[C@H](C[C@@H](C(=O)Nc2ncc(F)s2)c2ccc(S(=O)(=O)C3CC3)cc2)C1 [Example 6, (S)-3-((R)-2-(4-(cyclopropylsulfonyl)phenyl)-3-((5-fluorothiazol-2-yl)amino)-3-oxopropyl)-N-propylpyrrolidine-1-carboxamide]
activity at 1 µM [1]: 422%

Structure (SMILES): CNC(=O)C(=O)N1CC[C@H](C[C@@H](C(=O)Nc2ncc(F)s2)c2ccc(S(=O)(=O)C3CC3)cc2)C1 [Example 11]
activity at 1 µM [1]: 427%

Structure (SMILES): Cc1ccc(NC(=O)[C@H](C[C@H]2CCN(C(N)=O)C2)c2ccc(S(=O)(=O)C3CC3)cc2)nc1 [Example 21, (S)-3-((R)-2-(4-(cyclopropylsulfonyl)phenyl)-3-((5-methylpyridin-2-yl)amino)-3-oxopropyl)pyrrolidine-1-carboxamide]
activity at 1 µM [1]: 727%
concentration at 150 min [2, 4]: 50 ng/mL
concentration at 150 min [2, 5]: 2 ng/mL
selectivity ratio at 150 min ([3]; dose 10 mg/kg): 25

Structure (SMILES): CC(=O)N1CC[C@H](C[C@@H](C(=O)Nc2ncc(F)s2)c2ccc(S(=O)(=O)C3CC3)cc2)C1 [Example 3, (R)-3-((S)-1-acetylpyrrolidin-3-yl)-2-(4-(cyclopropylsulfonyl)phenyl)-N-(5-fluorothiazol-2-yl)propanamide]
activity at 1 µM [1]: 803%
concentration at 150 min [2, 4]: 65 ng/mL
concentration at 150 min [2, 5]: 3.8 ng/mL
selectivity ratio at 150 min ([3]; dose 10 mg/kg): 17

Structure (SMILES): CNC(=S)N1CC[C@H](C[C@@H](C(=O)Nc2ncc(F)s2)c2ccc(S(=O)(=O)C3CC3)cc2)C1 [Example 8, (R)-2-(4-(cyclopropylsulfonyl)phenyl)-N-(5-fluorothiazol-2-yl)-3-((S)-1-(methylcarbamothioyl)pyrrolidin-3-yl)propanamide]
activity at 1 µM [1]: 535%

Continued, in another order:

activity at 1 µM [1]: 484%
Structure (SMILES): CNC(=O)N1CC[C@H](C[C@@H](C(=O)Nc2ncc(C)s2)c2ccc(S(=O)(=O)C3CC3)cc2)C1 [Example 16, (S)-3-((R)-2-(4-(cyclopropylsulfonyl)phenyl)-3-((5-methylthiazol-2-yl)amino)-3-oxopropyl)-N-methylpyrrolidine-1-carboxamide]

activity at 1 µM [1]: 737%
Structure (SMILES): CNC(=O)N1CC[C@H](C[C@@H](C(=O)Nc2ncc(Cl)s2)c2ccc(S(=O)(=O)C3CC3)cc2)C1 [Example 15, (S)-3-((R)-3-((5-chlorothiazol-2-yl)amino)-2-(4-(cyclopropylsulfonyl)phenyl)-3-oxopropyl)-N-methylpyrrolidine-1-carboxamide]

activity at 1 µM [1]: 809%
Structure (SMILES): CNC(=O)N1CC[C@H](C[C@@H](C(=O)Nc2ncc(OC)s2)c2ccc(S(=O)(=O)C3CC3)cc2)C1 [Example 14, (S)-3-((R)-2-(4-(cyclopropylsulfonyl)phenyl)-3-((5-methoxythiazol-2-yl)amino)-3-oxopropyl)-N-methylpyrrolidine-1-carboxamide]

activity at 1 µM [1]: 877%
Structure (SMILES): COc1cnc(NC(=O)[C@H](C[C@H]2CCN(C(C)=O)C2)c2ccc(S(=O)(=O)C3CC3)cc2)s1 [Example 26, (R)-3-((S)-1-acetylpyrrolidin-3-yl)-2-(4-(cyclopropylsulfonyl)phenyl)-N-(5-methoxythiazol-2-yl)propanamide]

activity at 1 µM [1]: 828%
Structure (SMILES): COC(=O)N1CC[C@H](C[C@@H](C(=O)Nc2ncc(F)s2)c2ccc(S(=O)(=O)C3CC3)cc2)C1 [Example 7, (S)-methyl 3-((R)-2-(4-(cyclopropylsulfonyl)phenyl)-3-((5-fluorothiazol-2-yl)amino)-3-oxopropyl)pyrrolidine-1-carboxylate]

concentration at 150 min ([2]; liver, dose 30 mg/kg, read-out: Non-binding concentration (ng/mL) Liver): 23 ng/mL
concentration at 150 min ([2]; pancreas, dose 30 mg/kg, read-out: Non-binding concentration (ng/mL) Pancreas): 0.56 ng/mL
Structure (SMILES): CNC(=O)N1CC[C@H](C[C@@H](C(=O)Nc2ncc(F)s2)c2ccc(S(=O)(=O)C3CC3)cc2)C1 [Example 2, (S)-3-((R)-2-(4-(cyclopropylsulfonyl)phenyl)-3-((5-fluorothiazol-2-yl)amino)-3-oxopropyl)-N-methylpyrrolidine-1-carboxamide]
selectivity ratio at 150 min ([3]; dose 30 mg/kg): 41

activity at 1 µM [1]: 602%
Structure (SMILES): O=C(Nc1ncc(F)s1)[C@H](C[C@H]1CCN(C(=O)NO)C1)c1ccc(S(=O)(=O)C2CC2)cc1 [Example 10, (S)-3-((R)-2-(4-(cyclopropylsulfonyl)phenyl)-3-((5-fluorothiazol-2-yl)amino)-3-oxopropyl)-N-hydroxypyrrolidine-1-carboxamide]
